Experimental data from paper PMC8460738, “Berberine is an insulin secretagogue targeting the KCNH6 potassium channel” (Nature Communications, 2021).

Target: T1, KCNH6 potassium channel (Homo sapiens, UniProt Q9H252)
T1 construct: human KCNH6 (WT cDNA) transfected in HEK293T cells; FLAG-tagged for pull-down
T1 sequence (Q9H252 1-958): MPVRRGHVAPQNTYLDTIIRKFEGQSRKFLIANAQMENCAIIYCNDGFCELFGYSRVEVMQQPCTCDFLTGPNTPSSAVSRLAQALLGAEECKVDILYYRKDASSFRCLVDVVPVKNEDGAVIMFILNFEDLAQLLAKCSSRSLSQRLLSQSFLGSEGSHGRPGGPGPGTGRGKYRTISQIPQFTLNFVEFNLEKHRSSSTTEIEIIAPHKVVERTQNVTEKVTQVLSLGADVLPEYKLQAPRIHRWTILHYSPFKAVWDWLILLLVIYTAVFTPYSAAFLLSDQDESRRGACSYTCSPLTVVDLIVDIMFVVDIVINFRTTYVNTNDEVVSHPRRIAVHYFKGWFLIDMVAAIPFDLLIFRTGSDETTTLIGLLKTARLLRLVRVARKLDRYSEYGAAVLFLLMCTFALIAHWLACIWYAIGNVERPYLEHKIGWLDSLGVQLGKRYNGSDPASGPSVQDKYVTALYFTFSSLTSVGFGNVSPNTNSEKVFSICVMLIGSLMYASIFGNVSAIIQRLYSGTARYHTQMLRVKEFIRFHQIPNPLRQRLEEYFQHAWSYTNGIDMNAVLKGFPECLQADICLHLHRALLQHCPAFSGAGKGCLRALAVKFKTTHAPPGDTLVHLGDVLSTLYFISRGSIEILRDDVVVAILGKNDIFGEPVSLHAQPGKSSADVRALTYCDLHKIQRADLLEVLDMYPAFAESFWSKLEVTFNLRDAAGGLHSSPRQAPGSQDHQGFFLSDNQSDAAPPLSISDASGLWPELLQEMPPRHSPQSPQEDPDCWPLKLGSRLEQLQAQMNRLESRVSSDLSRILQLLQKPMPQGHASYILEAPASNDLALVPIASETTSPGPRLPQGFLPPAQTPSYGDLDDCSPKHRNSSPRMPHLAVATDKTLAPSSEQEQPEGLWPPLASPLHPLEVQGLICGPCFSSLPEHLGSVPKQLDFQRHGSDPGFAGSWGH
Experiment: whole-cell patch clamp of KCNH6-transfected HEK293T cells; affinity-bead pull-down from cell extract competed by free BBR
Format: cell-based

Question: Which IC50 does the source give for `COc1ccc2cc3[n+](cc2c1OC)CCc1cc2c(cc1-3)OCO2` [BBR, berberine] here?
Answer: Its IC50 is 1010 ± 40 nM.
